Consider 7 compounds from patent US9951049B2, “Pyrazole linked benzimidazole conjugates and a process for preparation thereof” (Council of Scientific & Industrial Reseach, priority 2014, dated 2018).

Assay [1] concerns fifty six human tumor cell lines. The assay can be described thus: NCI human tumor cell line screen (48 h, SRB), all cell lines. The following applies: various cell lines.
Another assay deals with Leukemia cell lines. The assay is described as follows: NCI SRB screen, Leukemia panel average. The following applies: Homo sapiens, 48 h, read-out: Log10 GI50 (converted).
The next assay deals with CNS cancer cell lines. The assay can be described thus: NCI SRB screen, CNS panel average. The following applies: Homo sapiens, 48 h, read-out: Log10 GI50 (converted).
In a further assay the test system is Renal cancer cell lines. The assay is described as follows: NCI SRB screen, Renal panel average. The following applies: Homo sapiens, 48 h, read-out: Log10 GI50 (converted).
For another assay, the system named is Colon cancer cell lines. The assay can be described thus: NCI SRB screen, Colon panel average. The following applies: Homo sapiens, 48 h, read-out: Log10 GI50 (converted).
Assay [2] deals with Ovarian cancer cell lines. The assay is described as follows: NCI SRB screen, Ovarian panel average. The following applies: Homo sapiens, 48 h, read-out: Log10 GI50 (converted).
Assay [3] deals with Non-small-cell lung cancer cell lines. The assay is described as follows: NCI SRB screen, Non-small-cell lung panel average. The following applies: Homo sapiens, 48 h, read-out: Log10 GI50 (converted).
The subject of the next assay is Breast Cancer cell lines. The assay is described as follows: NCI SRB screen, Breast Cancer panel average. The following applies: Homo sapiens, 48 h, read-out: Log10 GI50 (converted).
Another assay has as its system Melanoma cell lines. The assay can be described thus: NCI SRB screen, Melanoma panel average. The following applies: Homo sapiens, 48 h, read-out: Log10 GI50 (converted).
Assay [4] deals with Prostate cancer cell lines. The assay can be described thus: NCI SRB screen, Prostate panel average. The following applies: Homo sapiens, 48 h, read-out: Log10 GI50 (converted).

Turning to `COc1ccc(-c2cc(-c3nc4cc(F)ccc4[nH]3)[nH]n2)c(OC)c1` [7e, 2-(3-(2,4-dimethoxyphenyl)-1H-pyrazol-5-yl)-5-fluoro-1H-benzo[d]imidazole], in [1], the “mean graph pattern: profile of activity and selectivity” value was “an interesting profile of activity and selectivity”.
Regarding `COc1ccc(-c2cc(-c3nc4cc(Cl)ccc4[nH]3)[nH]n2)c(OC)c1` [8e, 5-chloro-2-(3-(2,4-dimethoxyphenyl)-1H-pyrazol-5-yl)-1H-benzo[d]imidazole], the “mean graph pattern: profile of activity and selectivity” value in assay [1] was “an interesting profile of activity and selectivity”.
Regarding `COc1ccc(-c2cc(-c3nc4cc(Cl)c(Cl)cc4[nH]3)[nH]n2)c(OC)c1` [10e, 5,6-dichloro-2-(3-(2,4-dimethoxyphenyl)-1H-pyrazol-5-yl)-1H-benzo[d]imidazole], in assay [1], the “mean graph pattern: profile of activity and selectivity” value was “an interesting profile of activity and selectivity”.
Still for that read-out and setting: the entry for `COc1ccc(-c2cc(-c3nc4cc(C(F)(F)F)ccc4[nH]3)[nH]n2)c(OC)c1` [11e, 2-(3-(2,4-dimethoxyphenyl)-1H-pyrazol-5-yl)-5-(trifluoromethyl)-1H-benzo[d]imidazole] is “an interesting profile of activity and selectivity”.
Same read-out and setting: the entry for `COc1ccc(-c2cc(-c3nc4cc([N+](=O)[O-])ccc4[nH]3)[nH]n2)c(OC)c1` [12e, 2-(3-(2,4-dimethoxyphenyl)-1H-pyrazol-5-yl)-5-nitro-1H-benzo[d]imidazole] is “an interesting profile of activity and selectivity”; for `COc1ccc(-c2cc(-c3nc4cc(Cl)c(F)cc4[nH]3)[nH]n2)c(OC)c1` [13e, 5-chloro-2-(3-(2,4-dimethoxyphenyl)-1H-pyrazol-5-yl)-6-fluoro-1H-benzo[d]imidazole] it is “an interesting profile of activity and selectivity”.
As for `COC(=O)Nc1nc2ccc(C(=O)c3cccs3)cc2[nH]1` [Nocodazole, reference compound], the GI50 was 12.3 nM in the assay on Leukemia cell lines; 22.9 nM in the assay with CNS cancer cell lines; 107 nM in the assay with Renal cancer cell lines; 17.8 nM with Colon cancer cell lines; 145 nM in assay [2]; 20.4 nM in assay [3]. Also, the GI50 was 155 nM in the assay on Breast Cancer cell lines, 22.4 nM in the assay on Melanoma cell lines and 14.5 nM in [4].
